From US12251366B1, “Sulforaphane-cysteine for wound healing in diabetic subjects” (KUWAIT UNIVERSITY, priority 2024, dated 2025)
Entries after “also recorded” stand apart in the source; their conditions may differ.

What was measured:
[1] = tested on: Vimentin-TGF-β-Slug signaling pathway; assay: Vimentin-TGF-β-Slug signaling in diabetic wound biopsies; format: in vivo, rat; conditions: semi-chronic administration
Excerpt: Although the molecular mechanism by which SFN-Cyst enhanced wound healing potential was not fully explored in this study, it is possible to involve the Vimentin-TGF-β-Slug signaling pathway. Vimentin is an intermediate filament protein that participates in several cellular processes essential for wound healing, including cell proliferation, adhesion, migration and cytoskeletal rearrangement. Moreover, vimentin also amplifies epithelial-mesenchymal-transition via enhancing TGF-β-Slug signaling. […] A similar reduction in TGF-β-Slug signaling level was also evident in this disease state (FIG. 3D).
Total RNA from cells or frozen sponge implants was extracted using the Trizol reagent (Invitrogen), and the RNA integrity was verified by agarose gel electrophoresis. Approximately 1 μg of RNA was reverse transcribed (Superscript II Reverse Transcriptase Kit, Invitrogen) and amplified using the TaqMan Assay on Demand (Applied Biosystems) in a 25 μL reaction volume containing two unlabeled primers, a 6-carboxyfluorescien-labeled TaqMan MGB probe and the master mix. The amplified sequences were assessed using the ABI 7500 Prism Sequence Detection system machine. The results were expressed as mRNA levels normalized to 18S or GAPDH in each sample.

IL-6 = assay: Cytokine ELISA, LPS-stimulated peritoneal macrophages (IL-6); format: cell-based, mouse; conditions: LPS 100 ng/mL 6 hours, pre-treatment 1.5 μM
Excerpt: This was exemplified in the current study by the ability of SFN-CYS to inhibit lipopolysaccharide (LPS)-induced peritoneal macrophages and bone marrow-derived macrophages to produce tumor necrosis factor-α (TNF-α) and interlukin-6 (IL-6). TNF-α and IL-6 are two of the major inflammatory mediators that contribute to the pathogenesis of low-grade inflammation; a phenomenon which is commonly associated with the diabetic state. […] Pre-treatment with SFN-Cys inhibited the expression of LPS-induced TNF-α and IL-6 protein at a therapeutic dose of 1.5 μM (FIGS. 1A and 1B).
Thioglycollate-elicited mouse peritoneal macrophages were prepared from C57BL (8-10 weeks old) and cultured in RPMI 1640 with 10% (v/v) FCS Bone marrow-derived macrophages were generated in RPMI medium containing M-CSF (10 ng/mL) according to previously published procedure. For cytokine ELISA assay, cells were seeded at 5×10^5 in 12-well plates, whereas for mRNA expression, the cells were seeded at […]. LPS and used at a dose of 100 ng/mL. Similarly. SFN-Cys was used at a concentration of 1.5 umol/L.
For cytokine ELISA, supernatants from cultured macrophages were collected in response to treatment with SFN and SFN-Cys for 6 h. The total TNF-α and TL-6 were measured by enzyme-linked immunosorbent assay (ELISA) using kits (R&D system, USA) according to the manufacturer's protocols.

[2] = Muscle weight in diabetic mice (sarcopenia); format: in vivo
Excerpt: (§1) Therapeutic rational was considered for SFN-Cys effectiveness in the following pathological conditions: Sarcopenia-SFN-Cys increased muscle weight in diabetic mice, see FIGS. 4A and 4B; Cardiac fibrosis-SFN-Cys inhibits transforming growth factor beta (TGF-β) expression, see FIG. 4C; Erectile dysfunction-SFN-Cys increased endothelial nitric oxide activity and expression in corpus cavernosum.

[3] = Pain threshold in diabetic rats (diabetic neuropathy); format: in vivo; conditions: 5 μmol/rat
Excerpt: as §1

[4] = tested on: neuronal, vascular, muscle, cardiac and stem cells; assay: Protection of cells from oxidative stress and inflammation-induced apoptotic cell death; format: cell-based; conditions: at certain concentrations
Excerpt: Thus, SNF-Cys may have a therapeutic benefit in the following conditions in addition to impaired wound healing: Sarcopenia, Fat grafting, Psoriasis, Nerve regeneration and diabetic neuropathy, Erectile dysfunction, and Cardiac fibrosis.

full-thickness wounds = assay: In vivo wound closure assay, excisional wound healing rat model; design: species or system GK rats; conditions: for mitigation of diabetes-related impairment of wound healing compared with VEGF: animal model of (aged) type 2 diabetes; for wound closure / wound healing: rats, topical 1.5 μmol/wound in Pluronic acid every other day, day-0 through day-7
Experimental: Successful wound healing necessitates a series of tightly coordinated and overlapping processes including inflammation, new tissue formation and remodeling. Fibroblasts, in response to growth factors-released mostly by macrophages, migrate to the site of injury, where they proliferate and lay down the extracellular matrix (ECM). Consequently, this facilitates cell migration and tissue reconstruction. The effect of a therapeutic concentration of SFN-Cys (1.5 μM) was investigated on the proliferation of fibroblasts isolated from the granulation tissue of control and diabetic wounds. Similarly, the effect of SFN-Cys on cell migration in the in vitro wound closure assay was also considered. […] Accordingly, in vivo wound closure properties of SFN-Cys were examined using an excisional wound healing rat model. SFN-Cys containing Pluronic acid was topically applied to the wound at a dose of 1.5 μmol concentration and the wound closure area was digitally photographed and quantified. Digital photographs were obtained on day-0 through day-7 of post wounding. […] In this context, the wound healing time-course was faster in SFN-Cys containing Pluronic acid than the Pluronic acid alone (FIG. 3C). […] VEGF is a well-established enhancer of the proliferative phase of healing.
For wounding experiments, 15-18-month female GK rats were anesthetized with intraperitoneal injection of ketamine/xylazine and full-thickness wounds were made in the mid dorsal skin with 8-mm disposable punches. To evaluate the effect of SFN-Cys on wound closure, the drug was dissolved initially with DMSO and then diluted with a 25% Pluronic acid solution at a dose of 1.5 μmol/wound; applied topically to the wound every other day. The wounds were photographed at 0-, 3- or 7-days post-wounding.

fibroblasts (CF, DF) = assay: In vitro wound healing repair assay (cell migration); format: cell-based, rat; conditions: 1.5 μM, 24 hrs
Experimental: Successful wound healing necessitates a series of tightly coordinated and overlapping processes including inflammation, new tissue formation and remodeling. Fibroblasts, in response to growth factors-released mostly by macrophages, migrate to the site of injury, where they proliferate and lay down the extracellular matrix (ECM). Consequently, this facilitates cell migration and tissue reconstruction. The effect of a therapeutic concentration of SFN-Cys (1.5 μM) was investigated on the proliferation of fibroblasts isolated from the granulation tissue of control and diabetic wounds. Similarly, the effect of SFN-Cys on cell migration in the in vitro wound closure assay was also considered. […] Accordingly, in vivo wound closure properties of SFN-Cys were examined using an excisional wound healing rat model. SFN-Cys containing Pluronic acid was topically applied to the wound at a dose of 1.5 μmol concentration and the wound closure area was digitally photographed and quantified. Digital photographs were obtained on day-0 through day-7 of post wounding. […] In this context, the wound healing time-course was faster in SFN-Cys containing Pluronic acid than the Pluronic acid alone (FIG. 3C). […]
Fibroblasts (1×10^5/well) were cultured until confluence. […] The closure of the wounded area was calculated using Image J software (NIH). Data are expressed as a percent of wound closure.

NQO1 = assay: mRNA expression of Nrf2 target gene NQO1 in fibroblasts; format: cell-based, rat; conditions: diabetic fibroblasts, 1.5 μM
Experimental: To better characterize how SFN-Cys impacts cellular antioxidant levels, the ability of SFN-Cys to regulate the transcription factor nuclear factor erythroid 2-related factor 2 (Nrf2) was assessed, which is a master regulator of the antioxidative stress response that induces the expression of antioxidant proteins such as heme oxygenase (HO) and NAD(P)H dehydrogenase (quinine; NQO1) and key enzymes in the glutathione system. In this context, Nrf2 transcriptional activity was first measured using a vector encoding luciferase driven by the NQO1 promoter. […] Administration of SNF-Cyst at the above indicated concentration (1.5 μM, the lowest effective concentration) ameliorated diabetes-induced suppression of the Nrf2 activity and Nrf2-target genes including HO and NQO1 (FIG. 2A-D).
Total RNA from cells or frozen sponge implants was extracted using the Trizol reagent (Invitrogen), and the RNA integrity was verified by agarose gel electrophoresis. […] The amplified sequences were assessed using the ABI 7500 Prism Sequence Detection system machine. The results were expressed as mRNA levels normalized to 18S or GAPDH in each sample.

endothelial nitric oxide = assay: Endothelial nitric oxide activity and expression in corpus cavernosum; format: in vivo
Excerpt: as §1

SMILES: C[S+]([O-])CCCCNC(=S)SCC(N)C(=O)O (stereo not shown) [SFN-Cys, Sulforaphane-Cysteine]
- deficit in Vimentin-TGF-β-Slug signaling [1]: ameliorated
- expression of LPS-induced IL-6 protein (IL-6): inhibited
- muscle weight [2]: increased
- pain threshold [3]: elevated
- protection from oxidative state and low-grade inflammation-induced apoptotic cell death [4]: protects
- mitigation of diabetes-related impairment of wound healing compared with VEGF (full-thickness wounds): better than vascular endothelial growth factor (VEGF)
- mitigation of diabetes-related impairment of wound healing compared with VEGF (full-thickness wounds; listed as SNF-Cys): more efficacious than vascular endothelial growth factor (VEGF)
- wound closure / wound healing (full-thickness wounds): enhanced wound closure; also recorded: ameliorated; also recorded: increases wound healing potential both in control and diabetic subjects
- wound closure / wound healing (full-thickness wounds; listed as SNF-Cys): ameliorated
- percentage of increase in cell migration, diabetics versus controls (fibroblasts (CF, DF)): greater in diabetics as compared to controls
- cell migration (in vitro wound closure) (fibroblasts (CF, DF); CF and DF): enhanced cell migration not only in control but also in diabetic fibroblasts
- mRNA expression of Nrf2 target gene NQO1 (NQO1): ameliorated
- endothelial nitric oxide activity and expression (endothelial nitric oxide): increased
